The target of one test is T1, human GCGR (Homo sapiens, UniProt P47871).
T1 construct: expressed in transfected cells; assay-ready frozen cells grown with Blasticidin and Hygromycin
The test is described as follows: cAMP activity assay, cells expressing human GCGR (HitHunter cAMP XS). It counts as cell-based. To be noted: ratio of human GCGR EC50 to human GLP1R EC50. The protocol:
(§1) Activity of the peptides at the Glucagon receptor (GCGR) and GLP-1 receptor (GLP1R) was measured in a cAMP activity assay.
(§2) Peptides were dissolved in 100% DMSO and serially diluted to generate 10 point titrations. The peptide solutions were then transferred into 384-well assay plates (150 nL/well).
(§3) Assay ready frozen cells expressing human GLP1R or human GCGR were suspended in growth media consisting of DMEM medium (GIBCO), 10% FBS (GIBCO), 1x NEAA(GIBCO), 1x P/S (GIBCO), 10ug/ml Blasticidin (GIBCO) and 200 µg/mL Hygromycin (GIBCO). Cells were then diluted in assay buffer consisting of PBS (GIBCO), 7.5% BSA (Perkin Elmer), 100 µM RO 20-1724 (Sigma), with or without 20% human serum (MP Biomedical). The cell suspensions (15 µL) were then added to the assay plates containing the peptide solutions (30,000 cells/well for human GCGR; 10.000 cells/well for human GLP1R). The cells were incubated for 1 hour at room temperature in the dark. Production of cAMP was determined using HitHunter™ cAMPXS kits (DiscoverX) following manufacturer protocol. The plates were incubated for overnight at room temperature in the dark. Luminescence was measured using an EnVision Multilabel plate reader (Perkin Elmer). Native GLP-1 and Glucagon (Bachem) are used as control peptides. EC50 values were calculated using uses a 4 parameter logistic fit based on the Levenberg-Marquardt algorithm.

A further test has as its target T2, human GLP1R (Homo sapiens, UniProt P43220).
T2 construct: expressed in transfected cells; assay-ready frozen cells grown with Blasticidin and Hygromycin
The test is described as follows: cAMP activity assay, cells expressing human GLP1R (HitHunter cAMP XS). Type of test: cell-based. To be noted: cAMP production, 1 hour at room temperature; assay buffer with or without 20% human serum (not stated which). The protocol:
as §1, §2, §3
A general note: cAMP levels reflect the balance of adenylyl cyclase and phosphodiesterase activity.

Experimental findings from patent US20230270825A1, “STAPLED OLEFIN CO-AGONISTS OF THE GLUCAGON AND GLP-1 RECEPTORS” (Merck Sharp & Dohme LLC, priority 2019, published 2023) are described below.

SMILES strings stand for the structures. Numbered stars: 1 amine (or outer) side, 2 acyl side, 3 side chain; on linkers, the order of the positions; unused ones are H or OH. Bridge positions count the residues as written; N and C are the ends. Square brackets hold non-standard residues; d marks the D form. Side chains are listed from the residue outwards. Peptide text beside a SMILES is read from it. * marks the point of attachment. γGlu = O=C(O)[C@H](CCC(=O)[*:2])N[*:1]; Palmitoyl = CCCCCCCCCCCCCCCC(=O)*; S5 = C=CCCC[C@](C)(N)C(=O)O; Aib = CC(C)(N)C(=O)O

As usually defined, the EC50 is the midpoint of the concentration-response curve.

T1 sequence (P47871 26-477): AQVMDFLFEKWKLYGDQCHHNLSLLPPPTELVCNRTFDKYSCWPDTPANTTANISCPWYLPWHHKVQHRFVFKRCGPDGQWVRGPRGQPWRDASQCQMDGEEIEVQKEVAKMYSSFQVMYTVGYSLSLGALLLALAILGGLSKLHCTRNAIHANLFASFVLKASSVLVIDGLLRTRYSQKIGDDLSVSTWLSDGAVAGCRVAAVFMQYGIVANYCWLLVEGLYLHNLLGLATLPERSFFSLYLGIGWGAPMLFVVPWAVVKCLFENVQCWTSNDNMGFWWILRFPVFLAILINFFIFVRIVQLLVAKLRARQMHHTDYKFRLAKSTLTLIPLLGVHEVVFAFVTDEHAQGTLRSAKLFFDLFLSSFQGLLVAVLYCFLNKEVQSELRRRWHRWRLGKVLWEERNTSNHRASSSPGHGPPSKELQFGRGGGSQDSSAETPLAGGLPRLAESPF
T2 sequence (P43220 24-463): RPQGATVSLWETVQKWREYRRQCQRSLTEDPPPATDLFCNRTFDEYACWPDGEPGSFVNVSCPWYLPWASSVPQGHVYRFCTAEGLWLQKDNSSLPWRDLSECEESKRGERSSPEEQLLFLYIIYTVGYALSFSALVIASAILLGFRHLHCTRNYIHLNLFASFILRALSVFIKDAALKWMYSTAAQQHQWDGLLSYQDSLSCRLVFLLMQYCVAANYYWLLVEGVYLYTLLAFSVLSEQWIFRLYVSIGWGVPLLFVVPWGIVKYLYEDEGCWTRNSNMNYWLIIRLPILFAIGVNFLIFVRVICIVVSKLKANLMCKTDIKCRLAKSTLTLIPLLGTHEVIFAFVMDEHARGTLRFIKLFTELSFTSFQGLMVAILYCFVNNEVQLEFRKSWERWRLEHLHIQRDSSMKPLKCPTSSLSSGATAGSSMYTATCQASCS

In the case of `CCCCCCCCCCCCCCCC(=O)N[C@@H](CCC(=O)N[C@@H](CCC(=O)NCCCC[C@H](NC(=O)[C@H](CC(=O)O)NC(=O)[C@H](CO)NC(=O)[C@@H](NC(=O)[C@H](Cc1ccccc1)NC(=O)[C@@H](NC(=O)CNC(=O)[C@H](CCC(N)=O)NC(=O)C(C)(C)NC(=O)[C@@H](N)Cc1c[nH]cn1)[C@@H](C)O)[C@@H](C)O)C(=O)N[C@@H](CO)C(=O)N[C@@H](CCCCN)C(=O)N[C@@H](Cc1ccc(O)cc1)C(=O)N[C@@H](CC(C)C)C(=O)N[C@@H](CC(=O)O)C(=O)NC(C)(C)C(=O)N[C@@H](CCCNC(=N)N)C(=O)N[C@@H](C)C(=O)N[C@@H](C)C(=O)N[C@@H](CCC(N)=O)C(=O)N[C@@H](CC(=O)O)C(=O)N[C@@H](Cc1ccccc1)C(=O)N[C@H](C(=O)N[C@@]1(C)CCCC=CCCC[C@@](C)(C(=O)N[C@H](C(=O)N[C@@H](CCCCN)C(=O)N[C@@H](CCC(N)=O)C(=O)O)[C@@H](C)O)NC(=O)[C@H](CCSC)NC(=O)[C@H](CC(C)C)NC(=O)[C@H](Cc2c[nH]c3ccccc23)NC1=O)C(C)C)C(=O)O)C(=O)O` [compound 14] (H-H[Aib]QGTFTSDK([γGlu-γGlu-Palmitoyl])SKYLD[Aib]RAAQDFV[S5]WLM[S5]TKQ-OH; staple 24-28), the “hGCGR/hGLP1R (hTone)” value on human GCGR was found to be 35.14. A half-maximal response on human GLP1R (EC50) required 0.13 nM.
